From patent US7326689B2, “Pseudomycins useful against plant diseases” (Eli Lilly and Company, priority 2000, dated 2008)

Assays:
Experiment in all cases: Antifungal growth assay in potato dextrose broth, 24-well
Assay type in all cases: cell-based
Parameters in all cases: key: NI, no inhibition; p (partial), at least 50% inhibited
Aphanomyces sp. = details: 2x assays
Method in brief: (§1)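 Compounds were serially diluted in DMSO and tested at final concentrations of 50–1.56 ug/ml (2–0.0625 ug/ml in repeat runs) in potato dextrose broth inoculated with a ~4 mm^2 PDA mycelium plug. M. fijiensis received ground mycelium suspended in PDB instead. The value is the lowest concentration with no growth at 2 and 5 days.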

Botrytis alli = details: 2x assays
Method in brief: as §1

Cochliobolus carbonum = tested on: Cochliobolus carbonum
Method in brief: as §1

Diplodia natalensis = tested on: Diplodia natalensis
Method in brief: as §1

Fusarium avenaceum = tested on: Fusarium avenaceum
Method in brief: as §1

Fusarium solani = tested on: Fusarium solani
Method in brief: as §1

Phyllosticta maydis = tested on: Phyllosticta maydis
Method in brief: as §1

Phytophthora cinnemani = tested on: Phytophthora cinnemani
Method in brief: as §1

Phytophthora parasitica = tested on: Phytophthora parasitica
Method in brief: as §1

Phytophthora ultimum = tested on: Phytophthora ultimum
Method in brief: as §1

Sclerotinia sclerotiorum = details: 2x assays
Method in brief: as §1

Tapesia acuformis = details: 2x assays
Method in brief: as §1

Tapesia yallundae = details: 2x assays
Method in brief: as §1

Row | Substance | lowest level of compound that results in no growth (Aphanomyces sp.; five day results) | lowest level of compound that results in no growth (Aphanomyces sp.; two day results) | lowest level of compound that results in no growth (Botrytis alli; five day results) | lowest level of compound that results in no growth (Botrytis alli; two day results) | lowest level of compound that results in no growth (Cochliobolus carbonum; five day results) | lowest level of compound that results in no growth (Cochliobolus carbonum; two day results) | lowest level of compound that results in no growth (Diplodia natalensis; five day results) | lowest level of compound that results in no growth (Diplodia natalensis; two day results) | lowest level of compound that results in no growth (Fusarium avenaceum; five day results) | lowest level of compound that results in no growth (Fusarium avenaceum; two day results) | lowest level of compound that results in no growth (Fusarium solani; five day results) | lowest level of compound that results in no growth (Fusarium solani; two day results) | lowest level of compound that results in no growth (Phyllosticta maydis; five day results) | lowest level of compound that results in no growth (Phyllosticta maydis; two day results) | lowest level of compound that results in no growth (Phytophthora cinnemani; five day results) | lowest level of compound that results in no growth (Phytophthora cinnemani; two day results) | lowest level of compound that results in no growth (Phytophthora parasitica; five day results) | lowest level of compound that results in no growth (Phytophthora parasitica; two day results) | lowest level of compound that results in no growth (Phytophthora ultimum; five day results) | lowest level of compound that results in no growth (Phytophthora ultimum; two day results) | also measured
1 | pseudomycin A-FB | NI | NI | NI | NI | NI | NI | NI | NI | NI | NI | NI | p at 50 | NI | p at 50 | NI | NI | NI | NI | NI | NI | lowest level of compound that results in no growth (Sclerotinia sclerotiorum; five day results): NI; lowest level of compound that results in no growth (Sclerotinia sclerotiorum; two day results): NI; lowest level of compound that results in no growth (Tapesia acuformis; five day results): NI; lowest level of compound that results in no growth (Tapesia acuformis; two day results): NI; lowest level of compound that results in no growth (Tapesia yallundae; five day results): 25 µg/mL; lowest level of compound that results in no growth (Tapesia yallundae; two day results): 12.5 µg/mL
2 | Pseudomycin B | 50 µg/mL | p at 50 | NI | NI | NI | NI | NI | NI | NI | NI | NI | p at 50 | 50 µg/mL | 50 µg/mL | NI | NI | NI | NI | NI | NI | lowest level of compound that results in no growth (Sclerotinia sclerotiorum; five day results): NI; lowest level of compound that results in no growth (Sclerotinia sclerotiorum; two day results): p at 50; lowest level of compound that results in no growth (Tapesia acuformis; five day results): NI; lowest level of compound that results in no growth (Tapesia acuformis; two day results): NI; lowest level of compound that results in no growth (Tapesia yallundae; five day results): NI; lowest level of compound that results in no growth (Tapesia yallundae; two day results): 25 µg/mL
3 | pseudomycin A-PO4 | p at 50 | 50 µg/mL | p at 50 | 50 µg/mL | NI | NI | NI | NI | NI | NI | NI | NI | NI | p at 50 | NI | NI | NI | NI | NI | NI | lowest level of compound that results in no growth (Sclerotinia sclerotiorum; five day results): NI; lowest level of compound that results in no growth (Sclerotinia sclerotiorum; two day results): NI; lowest level of compound that results in no growth (Tapesia acuformis; five day results): 50 µg/mL; lowest level of compound that results in no growth (Tapesia acuformis; two day results): 50 µg/mL; lowest level of compound that results in no growth (Tapesia yallundae; five day results): 50 µg/mL; lowest level of compound that results in no growth (Tapesia yallundae; two day results): 25 µg/mL
4 | Pseudomycin C | 50 µg/mL | 25 µg/mL | NI | NI | NI | NI | NI | NI | NI | NI | NI | p at 50 | NI | p at 50 | NI | NI | NI | NI | NI | NI | lowest level of compound that results in no growth (Sclerotinia sclerotiorum; five day results): NI; lowest level of compound that results in no growth (Sclerotinia sclerotiorum; two day results): NI; lowest level of compound that results in no growth (Tapesia acuformis; five day results): NI; lowest level of compound that results in no growth (Tapesia acuformis; two day results): NI; lowest level of compound that results in no growth (Tapesia yallundae; five day results): NI; lowest level of compound that results in no growth (Tapesia yallundae; two day results): 25 µg/mL
5 | Pseudomycin B′ | NI | 25 µg/mL | NI | NI | NI | NI | NI | NI | NI | NI | NI | NI | NI | p at 50 | NI | NI | NI | NI | NI | NI | lowest level of compound that results in no growth (Sclerotinia sclerotiorum; five day results): NI; lowest level of compound that results in no growth (Sclerotinia sclerotiorum; two day results): NI; lowest level of compound that results in no growth (Tapesia acuformis; five day results): NI; lowest level of compound that results in no growth (Tapesia acuformis; two day results): NI; lowest level of compound that results in no growth (Tapesia yallundae; five day results): 50 µg/mL; lowest level of compound that results in no growth (Tapesia yallundae; two day results): 6.25 µg/mL
